Data published in US20030114529A1, “Hydroxamic acid thrombospondin peptide analog that inhibits aggrecanase activity” (priority 2001, published 2003).
pIC50, pKi: −log10 of the molar value.

Tests used:
[1] = target: T1, Collagenase MMP-1 (Homo sapiens, UniProt P03956); assay: Inhibition of collagenase MMP-1 by hydroxamic acids; type: biochemical; settings: for pKi: Ki = IC50/(1 + [S]/Km), read-out: Apparent Ki Collagenase MMP-1
T1 sequence (P03956 100-469): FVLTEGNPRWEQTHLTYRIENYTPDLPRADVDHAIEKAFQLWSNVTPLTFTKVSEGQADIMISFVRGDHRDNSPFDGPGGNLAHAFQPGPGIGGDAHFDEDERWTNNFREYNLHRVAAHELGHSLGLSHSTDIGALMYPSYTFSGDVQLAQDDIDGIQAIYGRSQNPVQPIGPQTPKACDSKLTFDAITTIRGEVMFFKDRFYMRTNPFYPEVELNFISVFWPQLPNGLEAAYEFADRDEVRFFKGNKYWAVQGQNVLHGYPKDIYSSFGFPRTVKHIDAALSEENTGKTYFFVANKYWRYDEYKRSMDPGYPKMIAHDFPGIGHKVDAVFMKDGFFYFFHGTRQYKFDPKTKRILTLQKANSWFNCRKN

[2] = target: T2, gelatinase MMP-2 (Homo sapiens, UniProt P08253); assay: Inhibition of gelatinase MMP-2 by hydroxamic acids; type: biochemical; settings: for pKi: Ki = IC50/(1 + [S]/Km), read-out: Apparent Ki gelatinase MMP-2
T2 sequence (P08253 110-660): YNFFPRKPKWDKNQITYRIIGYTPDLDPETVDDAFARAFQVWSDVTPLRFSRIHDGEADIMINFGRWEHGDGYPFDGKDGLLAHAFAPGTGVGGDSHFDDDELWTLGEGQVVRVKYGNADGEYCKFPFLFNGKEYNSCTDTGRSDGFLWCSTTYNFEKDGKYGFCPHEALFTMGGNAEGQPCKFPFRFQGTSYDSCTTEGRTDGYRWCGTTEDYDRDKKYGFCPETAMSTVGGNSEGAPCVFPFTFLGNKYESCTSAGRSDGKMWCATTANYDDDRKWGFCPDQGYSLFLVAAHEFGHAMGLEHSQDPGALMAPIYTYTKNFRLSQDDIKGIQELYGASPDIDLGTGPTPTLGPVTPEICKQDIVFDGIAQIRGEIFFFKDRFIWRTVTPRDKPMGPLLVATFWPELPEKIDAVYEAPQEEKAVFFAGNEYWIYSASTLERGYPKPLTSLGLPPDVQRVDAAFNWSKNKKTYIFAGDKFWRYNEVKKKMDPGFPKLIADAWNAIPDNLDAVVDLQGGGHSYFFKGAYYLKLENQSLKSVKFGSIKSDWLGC

[3] = target: stromelysin MMP-3 (Homo sapiens, UniProt P08254); assay: Inhibition of stromelysin MMP-3 by hydroxamic acids; type: biochemical; settings: for pKi: Ki = IC50/(1 + [S]/Km), read-out: Apparent Ki stromelysin MMP-3
[4] = tested on: ADAMTS-4/ADAMTS-5 (aggrecanase); assay: Inhibition of aggrecan cleavage at Glu1480-Gly1481 by recombinant ADAMTS-4/ADAMTS-5 (Western blot, densitometry); type: biochemical, Human; settings: aggrecan 500 nM, enzyme 5 nM, 2 hours, 37° C.; Ki = IC50/(1 + [S]/Km); read-out: Apparent Ki aggrecanase ADAM-TS4/5
Procedure: A series of newly synthesized hydroxamic acids (FIG. 1) were tested for their ability to inhibit recombinant ADAMTS-4/ADAM-TS5 as well a several matrix metalloproteinases (MMPs). In this study aggrecan, at a concentration of 500 nM, was incubated for 2 hours at 37° C. with 5 nM of either ADAMTS-4/ADAM-TS5 in the presence or absence of one of the hydroxamic acids at a concentration range from 0.1 to 1000 nM. Subsequently, the fractions were analysed for cleavage of aggrecan at the Glu^1480-^1481Gly site by Western Blot analysis, using a specific antibody recognizing the new C-terminus GELE^1480. Inhibition of cleavage was determined by scanning densitometry and the Ki values were determined (Table 1).
Digestions were carried out in 100 μl of 50 mM Tris/HCl buffer, pH 7.5, containing 100 mM NaCl and 10 mM CaCl2. Human recombinant ADAMTS-4/ADAMTS-5 were prepared as described (1, 2). Purified bovine aggrecan (12) (500 nM) was incubated with 5 nM ADAMTS-4/ADAMTS-5 at 37° C. for 2 hours, in the absence or presence of each of the hydroxamates described above, at concentrations ranging from […]. Following the incubation, cleavage of aggrecan at the Glu^1480-^1481Gly bond was monitored by Western Blot analysis, using the neoepitope antibody that recognizes the new C-terminus GELE^1480, as previously described (12).

[5] = tested on: Pig articular cartilage explants; assay: IL-1 induced aggrecan degradation in pig articular cartilage explants (GAG release, DMMB assay); type: cell-based; settings: 72 hours; for pIC50: Sus scrofa, pig explants, IL-1α, inhibitor 0.1 to 10 μM
Procedure: (§1) The same compounds were tested for the ability to block aggrecan cleavage in an in vitro model of cartilage degradation. Pig articular cartilage explants were cultured for 72 hours in the presence of IL-α, with or without one of the inhibitors at a concentration range og 0.1 to 10 μM. Culture media were assessed for the level of glycosaminoglycan chains (GAG) by dimethyl methylene blue (DMMB) assay, as a measure of aggrecan breakdown and IC50 values were calculated (Table 1). […] Therefore, we tested JWD40 for its ability to prevent aggrecan degradation in osteoarthritic (OA) cartilage. Human OA cartilage explants were cultured with or without JWD40, 0.1 to 10 μM. After 48 hours, media were analyzed for the presence of aggrecan products generated by cleavage by aggrecanase, containing the new N-terminus ^374ARGSV.
Articular cartilage was dissected from the knees of young pigs. Cartilage was allowed to equilibrate for 3 days in DMEM supplemented with 10% FCS, penicillin (100 U/ml) and streptomycin (100 μg/ml). Subsequently, cartilage was cut into 3×3 mm explants, weighing approximately 10-20 mg each, and incubated in 96-well plates for 72 hours with either control medium (serum-free DMEM),ml), IL-1α (100 ng/ml), or IL-1α (100 ng/ml) plus a series of hydroxamic acids at a concentration range of 0.1 μM to 10 μM. At the end of the culture period, glycosaminoglycan (GAG) levels in the culture media were determined by dimethylmethylene blue (DMMB) assay, as described by Farndale et al (13).

[6] = tested on: Human OA cartilage explants; assay: Aggrecanase-generated aggrecan fragment release from human osteoarthritic cartilage explants; type: cell-based; settings: 0.1 to 10 μM, 48 hours
Procedure: as §1
Articular cartilage was dissected from the hips of patients with osteoarthritis at the time of joint replacement. Cartilage was allowed to equilibrate for 3 days in DMEM supplemented with penicillin (100 U/ml) and streptomycin (100 μg/ml). […] At the end of the culture period, the media were analyzed for aggrecan fragments generated by cleavage of aggrecan by aggrecanase, using a neoepitope that recognizes the new N-terminus […] (14).

[7] = tested on: aggrecanase-1 (ADAMTS4); assay: Protection of native aggrecan from cleavage by full length aggrecanase-1 (Western blot, MAB2035); type: biochemical; settings: peptide 100 μM, ADAMTS4 5 nM, aggrecan 500 nM, 5 hours, 37° C.
Procedure: An aggrecan binding peptide sequence derived from thrombospondin motif of aggrecanase-1 was tested for its ability to protect aggrecan from degradation by aggrecanase. Full length aggrecanase-1 (ADAMTS4), 5 nM, was incubated with native aggrecan, 500 nM, for 5 hours at 37° C. in the presence of the thrombospondin peptide GGWGPWGPWGDCSRTCGGG, 100 μM (Seq. No. 14). Aggrecan cleavage products were measured by Western blot analysis using the monoclonal antibody MAB2035.

[8] = compared with Ki against aggrecanase

Sequence of stromelysin MMP-3 (P08254 100-477): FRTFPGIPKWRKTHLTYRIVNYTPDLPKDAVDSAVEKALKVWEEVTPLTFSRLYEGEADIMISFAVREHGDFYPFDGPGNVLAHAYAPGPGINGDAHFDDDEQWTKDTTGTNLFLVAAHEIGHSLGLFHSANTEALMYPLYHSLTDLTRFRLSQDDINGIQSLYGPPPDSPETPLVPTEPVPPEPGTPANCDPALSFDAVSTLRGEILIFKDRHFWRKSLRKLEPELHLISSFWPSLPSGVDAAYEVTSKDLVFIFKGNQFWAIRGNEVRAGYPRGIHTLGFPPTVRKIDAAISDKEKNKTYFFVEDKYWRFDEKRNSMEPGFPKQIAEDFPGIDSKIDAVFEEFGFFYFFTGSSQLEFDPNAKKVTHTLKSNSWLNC

Molecule	pKi [1]	Potency against MMP-1 relative to aggrecanase [1, 8]	pKi [2]	Potency against MMP-2 relative to aggrecanase [2, 8]	pKi [3]	Potency against MMP-3 relative to aggrecanase [3, 8]	pKi [4]	pIC50 [5]	Protection against IL-1 induced aggrecan degradation ([5]; pig articular cartilage explants)	Release of aggrecanase-generated fragment with N-terminus 374ARGSV [6]	Protection of aggrecan from cleavage by aggrecanase [7]
CNC(=O)[C@@H](NC(=O)[C@@H](CC(=O)NO)CC(C)C)C(C)C [JWD-40]	7.59	twofold less potent	7.44	twofold less potent	6.90	a log less potency	7.77	5.69	very effective	blocked the release of this fragment in a concentration-dependent manner	
CNC(=O)C(C)NC(=O)C(CC(=O)NO)CC(C)C (stereo not shown) [JWD-52]	7.12		7.23				7.46				
GGWGPWGPWGDCSRTCGGG											protects aggrecan from cleavage by aggrecanase
CNC(=O)C(Cc1ccc(F)cc1)NC(=O)C(CC(=O)NO)CC(C)C (stereo not shown) [JWC-95]	8.23		8.64		7.19		7.01	5.54			
CNC(=O)C(CCc1ccccc1)NC(=O)C(CC(=O)NO)CC(C)C (stereo not shown) [JWC-97]	8.13		8.64		6.87		7.21	5.74			
CNC(=O)C(Cc1ccc(OCc2ccccc2)cc1)NC(=O)C(CC(=O)NO)CC(C)C (stereo not shown) [JWC-100]	9.00		> 10.00		9.05		6.80	5.22			
CNC(=O)C(Cc1ccccc1)NC(=O)C(CC(=O)O)CC(C)C (stereo not shown) [JWD-18]	6.00		< 6.00		< 6.00		< 5.00	< 4.00			
